In PubChem BioAssay AID652002 (Sanford-Burnham Center for Chemical Genomics, 2013) one finds EC50 data, which are given here for 15 molecules.

Active and inactive are the calls of the source. The rule behind the calls is not given here.

Experiment [1] in a line: TRAIL sensitizers in caspase-8 expressing neuroblastoma cells, dose response, NB7 cells plus caspase-8, luminescence, panel (AID 652002). Conditions: NB7 neuroblastoma +caspase-8, no TRAIL, compound-alone cytotoxicity counter-screen, luminescence viability, NB7+Caspase-8. A general note: The purpose of a counterscreen is to sort out artefacts and off-target activity.
A further experiment concerns the target NB7+Caspase-8. Described as above. Particulars: NB7 neuroblastoma +caspase-8, TRAIL sensitization, luminescence viability, with TRAIL.
Experiment [2] concerns the target Tumor necrosis factor receptor superfamily member 10B (Homo sapiens) (UniProt O14763). Described as above. Conditions: NB7 neuroblastoma +caspase-8, TRAIL sensitization, luminescence viability; NB7+Caspase-8; with TRAIL, mean of runs.
The mark [3] stands for this setting: run 1, single replicate panel EC50.
Where [4] appears, read: run 2, single replicate panel EC50.

Tumor necrosis factor receptor superfamily member 10B (Homo sapiens), sequence (O14763 whole entry, looked up): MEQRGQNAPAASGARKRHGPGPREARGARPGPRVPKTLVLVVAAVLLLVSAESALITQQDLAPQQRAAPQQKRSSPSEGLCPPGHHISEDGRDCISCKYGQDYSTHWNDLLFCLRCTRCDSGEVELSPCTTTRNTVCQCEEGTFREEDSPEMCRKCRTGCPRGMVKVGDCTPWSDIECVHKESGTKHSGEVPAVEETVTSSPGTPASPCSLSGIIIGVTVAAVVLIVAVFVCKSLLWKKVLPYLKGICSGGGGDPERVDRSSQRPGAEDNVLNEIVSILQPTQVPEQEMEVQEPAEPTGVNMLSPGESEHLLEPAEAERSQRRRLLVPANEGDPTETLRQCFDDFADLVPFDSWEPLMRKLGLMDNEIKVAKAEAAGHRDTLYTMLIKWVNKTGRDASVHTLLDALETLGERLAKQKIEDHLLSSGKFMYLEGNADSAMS

For orientation: EC50 means the midpoint of the concentration-response curve. With `CCOC(=O)c1sc(NC(=O)Nc2ccc(F)cc2)nc1C`, the EC50 in experiment [1] (mean of runs) was > 12.5 µM (inactive); in experiment [1] (setting [3]), > 12.5 µM; in experiment [1] (setting [4]), > 12.5 µM; at NB7+Caspase-8 (setting [3]), > 12.5 µM; at NB7+Caspase-8 (setting [4]), > 12.5 µM; in experiment [2], > 12.5 µM (inactive).
As to `COc1cc(SC#N)ccc1N=Cc1c(C)[nH]n(-c2ccc(Cl)cc2)c1=O`, the EC50 is > 12.5 µM (inactive) in experiment [1] (mean of runs); > 12.5 µM in experiment [1] (setting [3]); > 12.5 µM in experiment [1] (setting [4]); > 12.5 µM on NB7+Caspase-8 (setting [3]); > 12.5 µM on NB7+Caspase-8 (setting [4]); > 12.5 µM (inactive) in experiment [2].
For the molecule `O=C(NC1=NCCS1)c1cc2ccccc2o1`, the EC50 entry in experiment [1] (mean of runs) and in experiment [2] was “inactive” in each case. The EC50 in experiment [1] (setting [3]) was > 12.5 µM; in experiment [1] (setting [4]) it was 4.22 µM; at NB7+Caspase-8 (setting [3]) it was 5.35 µM; at NB7+Caspase-8 (setting [4]), 10.4 µM.
Consider `COCCNc1c(-c2cc3ccc(C)c(C)c3[nH]c2=O)nc2ccccn12`, for which the EC50 entry in experiment [1] (mean of runs) and in experiment [2] was “inactive” throughout. Further, the 50% effective concentration (EC50) is > 12.5 µM in experiment [1] (setting [3]), 6.1 µM in experiment [1] (setting [4]), 8.39 µM on NB7+Caspase-8 (setting [3]) and 4.64 µM on NB7+Caspase-8 (setting [4]).
In the case of `O=C(Nc1ccc2[nH]ccc2c1)c1cccs1`, the EC50 result in experiment [1] (mean of runs) and in experiment [2] was “inactive” in each case. Moreover, the EC50 stood at 7.12 µM in experiment [1] (setting [3]), 4.71 µM in experiment [1] (setting [4]), 3.97 µM on NB7+Caspase-8 (setting [3]) and 5.19 µM at NB7+Caspase-8 (setting [4]).
Regarding `COc1ccc(OCC(=O)N/N=C/C=C/c2ccccc2)cc1`, the EC50 entry in experiment [1] (mean of runs) and in experiment [2] was “inactive” each time. For the same molecule, the EC50 in experiment [1] (setting [3]) was 10.3 µM; in experiment [1] (setting [4]), > 12.5 µM; on NB7+Caspase-8 (setting [3]) it was > 12.5 µM; on NB7+Caspase-8 (setting [4]) it was 1.96 µM.
For the molecule `O=C1c2ccc3c4c(ccc(c24)C(=O)N1c1cccc(O)c1)C(=O)N(c1cccc(O)c1)C3=O`, the EC50 is > 12.5 µM (inactive) in experiment [1] (mean of runs); > 12.5 µM in experiment [1] (setting [3]); > 12.5 µM in experiment [1] (setting [4]); 2.35 µM at NB7+Caspase-8 (setting [3]); 12.4 µM at NB7+Caspase-8 (setting [4]). Besides, the EC50 result in experiment [2] is “inactive”.
For `COc1cccc(C(=O)Nc2ccc(C3CC3(Cl)Cl)cc2)c1` (stereo not given), the EC50 in experiment [1] (mean of runs) was > 12.5 µM (inactive); in experiment [1] (setting [3]), > 12.5 µM; in experiment [1] (setting [4]), > 12.5 µM; at NB7+Caspase-8 (setting [3]) it was > 12.5 µM; on NB7+Caspase-8 (setting [4]), > 12.5 µM; in experiment [2], > 12.5 µM (inactive).
Turning to `Cc1cc(N/N=C/c2ccccc2)nc(NCc2ccccc2)n1`, the EC50 was > 12.5 µM (inactive) in experiment [1] (mean of runs); > 12.5 µM in experiment [1] (setting [3]); > 12.5 µM in experiment [1] (setting [4]); > 12.5 µM on NB7+Caspase-8 (setting [3]); 10.9 µM at NB7+Caspase-8 (setting [4]). Further, in experiment [2], the EC50 entry is “inactive”.
Take `O=Nc1ccc(NO)c2ccccc12`: the EC50 in experiment [1] (mean of runs) was > 12.5 µM (inactive); in experiment [1] (setting [3]), > 12.5 µM; in experiment [1] (setting [4]), > 12.5 µM; on NB7+Caspase-8 (setting [3]), > 12.5 µM; at NB7+Caspase-8 (setting [4]), 6.54 µM. Moreover, the EC50 entry in experiment [2] is “inactive”.
`COC(=O)CSc1nc2cc(C)ccc2cc1C#N`: the EC50 in experiment [1] (mean of runs) was > 12.5 µM (inactive); in experiment [1] (setting [3]), > 12.5 µM; in experiment [1] (setting [4]) it was > 12.5 µM; at NB7+Caspase-8 (setting [3]), > 12.5 µM; at NB7+Caspase-8 (setting [4]) it was 7.44 µM. The EC50 entry in experiment [2] was “inactive”.
With `CC(C)CCn1c(=O)c(C(=O)Nc2ccccc2S(N)(=O)=O)c(O)c2ccccc21`, the EC50 in experiment [1] (mean of runs) is > 12.5 µM (inactive); in experiment [1] (setting [3]), > 12.5 µM; in experiment [1] (setting [4]), > 12.5 µM; on NB7+Caspase-8 (setting [3]), > 12.5 µM; on NB7+Caspase-8 (setting [4]), > 12.5 µM; in experiment [2], > 12.5 µM (inactive).
Take `CCOc1ccc(/C=C/C(=O)Nc2cccc(C(C)=O)c2)cc1`: the EC50 in experiment [1] (mean of runs) was > 12.5 µM (inactive); in experiment [1] (setting [3]), > 12.5 µM; in experiment [1] (setting [4]), > 12.5 µM; at NB7+Caspase-8 (setting [3]), > 12.5 µM; on NB7+Caspase-8 (setting [4]), > 12.5 µM; in experiment [2], > 12.5 µM (inactive).
`CCOc1ccc(NC(=O)c2ccco2)cc1`: the EC50 result in experiment [1] (mean of runs) and in experiment [2] was “inactive” each time. For the same molecule, the EC50 is 6.87 µM in experiment [1] (setting [3]), 10.7 µM in experiment [1] (setting [4]), > 12.5 µM on NB7+Caspase-8 (setting [3]) and 6.9 µM on NB7+Caspase-8 (setting [4]).
Regarding `Cc1cc(NC(=O)c2cncc(Br)c2)ccc1NC(=O)c1cc2ccccc2o1`, the EC50 in experiment [1] (mean of runs) is > 12.5 µM (inactive); in experiment [1] (setting [3]) it was > 12.5 µM; in experiment [1] (setting [4]), > 12.5 µM; at NB7+Caspase-8 (setting [3]) it was > 12.5 µM; at NB7+Caspase-8 (setting [4]), 9.86 µM. Further, the EC50 entry in experiment [2] was “inactive”.
